Where two headings read alike, the source gives them in different places.
Assays:
[1] = test system: CNV lesions classified as predominantly classic or minimally classic; conditions: cited from earlier work
[2] = test system: occult choroidal neovascular lesions; assay: Verteporfin PDT of occult CNV lesions versus placebo, best corrected visual acuity at 24 months; format: in vivo, human
Method: Subjects having, suspected of having, or otherwise afflicted with occult neovascular lesions were evaluated for best corrected visual acuity as outlined in Example 1, and their lesion size determined angiographically as outlined in Example 2. […] The greatest linear dimension of the entire CNV lesion was […], corresponding to 9 Disc Areas. Subjects were evaluated for visual acuity and lesion size about 1 week prior to treatment. Subjects were randomly assigned to a treatment group and a placebo group.
For each subject in the treatment group, a 15 mg-vial of liposomally-formulated verteporfin (Verteporfin for Injection (Visudyne™) was reconstituted with 7 mL of sterile water for injection to provide 7.5 mL containing a final concentration of 2 mg/mL. The volume of reconstituted drug required to achieve a dose of 6 mg/M^2 (based upon the height and weight of the subject, calculated from a nomogram) was withdrawn from the vial and diluted with 5% dextrose for injection to make a total infusion volume of 30 mL. The full infusion volume was administered intravenously over 10 minutes using an appropriate syringe pump and in-line filter. Fifteen minutes after the start of the infusion, light was administered to the lesion from a diode laser through a fiber optic delivered via a slit lamp, and utilizing a suitable lens. A light dose of 50J/cm^2 was applied at a fluency rate of 600 mW/cm^2, 50J/cm^2 (83 second exposure).
Subjects were evaluated by fluorescein angiography approximately every three months, and their best corrected visual acuity was assessed. Subjects were retreated if evidence of CNV leakage was detected by fluorescein angiography.

[3] = baseline visual acuity <65 letters, lesion size all, 24 months
[4] = baseline visual acuity <65 letters, lesion size ≦4DA, 24 months
[5] = baseline visual acuity <65 letters, lesion size ≧4DA, 24 months
[6] = baseline visual acuity ≧65 letters, lesion size all, 24 months
[7] = baseline visual acuity ≧65 letters, lesion size ≦4DA, 24 months
[8] = baseline visual acuity ≧65 letters, lesion size ≧4DA, 24 months

verteporfin
treatment benefit with verteporfin PDT ([1]; lesions classified as minimally classic): did not
treatment benefit with verteporfin PDT ([1]; lesions classified as predominantly classic): large treatment benefit
30 Letter Response Rate (percent of subjects losing less than 30 letters) Difference V-P [2, 3]: 27.5%
Mean VA Difference [2, 3]: 11.7
15 Letter Response Rate (percent of subjects losing less than 15 letters) Difference V-P ([2]; baseline visual acuity <65 letters, lesion size all, 24 months after initial treatment, 6 mg/M^2 i.v., 50 J/cm^2): 33.8%
15 Letter Response Rate (percent of subjects losing less than 15 letters) Difference V-P [2, 4]: 43.8%
30 Letter Response Rate (percent of subjects losing less than 30 letters) Difference V-P [2, 4]: 19.4%
Mean VA Difference [2, 4]: 12.3
15 Letter Response Rate (percent of subjects losing less than 15 letters) Difference V-P [2, 5]: 21.5%
30 Letter Response Rate (percent of subjects losing less than 30 letters) Difference V-P [2, 5]: 30.0%
Mean VA Difference [2, 5]: 9.4
15 Letter Response Rate (percent of subjects losing less than 15 letters) Difference V-P [2, 6]: −3.9%
30 Letter Response Rate (percent of subjects losing less than 30 letters) Difference V-P [2, 6]: 8.5%
Mean VA Difference [2, 6]: 1.5
15 Letter Response Rate (percent of subjects losing less than 15 letters) Difference V-P [2, 7]: 12.5%
30 Letter Response Rate (percent of subjects losing less than 30 letters) Difference V-P [2, 7]: 26.8%
Mean VA Difference [2, 7]: 9.3
15 Letter Response Rate (percent of subjects losing less than 15 letters) Difference V-P [2, 8]: −24%
30 Letter Response Rate (percent of subjects losing less than 30 letters) Difference V-P [2, 8]: −5.3%
Mean VA Difference [2, 8]: −3.3
response of subjects having occult lesions to PDT ([2]; study of Example 3, in words): respond to PDT
